The molecules below were run against T1, Glutamate--cysteine ligase catalytic subunit (Homo sapiens, UniProt P48506) (assay: GCL Enzyme Profiling Assay).
T1 sequence (P48506 whole entry): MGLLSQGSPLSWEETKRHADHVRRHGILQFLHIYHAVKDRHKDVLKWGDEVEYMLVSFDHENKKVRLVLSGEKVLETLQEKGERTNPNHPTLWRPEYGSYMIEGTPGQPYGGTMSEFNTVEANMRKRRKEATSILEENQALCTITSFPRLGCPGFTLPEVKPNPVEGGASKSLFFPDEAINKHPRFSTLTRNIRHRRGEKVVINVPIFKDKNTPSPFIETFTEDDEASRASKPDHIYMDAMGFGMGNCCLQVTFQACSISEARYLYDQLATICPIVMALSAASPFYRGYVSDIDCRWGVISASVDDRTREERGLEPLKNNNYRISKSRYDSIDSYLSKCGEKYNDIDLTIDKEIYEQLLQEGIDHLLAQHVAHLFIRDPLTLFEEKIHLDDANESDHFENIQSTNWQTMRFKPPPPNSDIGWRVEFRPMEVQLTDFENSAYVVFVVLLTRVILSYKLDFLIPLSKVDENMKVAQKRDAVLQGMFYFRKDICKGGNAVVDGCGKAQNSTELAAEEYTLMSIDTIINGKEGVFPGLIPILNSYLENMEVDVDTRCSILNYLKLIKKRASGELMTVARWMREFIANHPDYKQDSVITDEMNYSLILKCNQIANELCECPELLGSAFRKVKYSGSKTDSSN
Protocol: Compound in pure DMSO was stamped in assay plates (Greiner black 384-well) or appropriate containers using a D300e digital dispenser (TECAN) and the final DMSO concentration was normalized to 1%. A 5 mL, or in the present case, 5 μL mixture of human recombinant GCL (final concentration: 5 nM) and ATP (final concentration: 0.6 mM) was added and the solution was incubated at room temperature (22° C.) for 1 h. […] The reaction was stopped after 1 h or in the present case, 2 h by addition of 5 mL, or in the present case, 5 μL ADP GLO Reagent (Promega). The resulting solution was incubated for 2 h at room temperature. This was then followed by addition of 5 mL, or in the present case, 5 μL ADP GLO Detection. After incubation at room temperature for 30 min, the plates were read on a plate reader (PheraStar) using a luminescence protocol to quantify the GCL enzyme activity from each reaction solution.
Molecule `N=S(=O)(CCC(c1ccc(S(=O)(=O)Cc2ccccc2)cc1)C(F)(F)F)CC[C@H](N)C(=O)O` (stereo partly drawn) [US20260034094, Compound 291] has an IC50 of under 20 µM. In the case of `N=S(=O)(CCC(c1cccc2ccccc12)C(F)(F)F)CC[C@H](N)C(=O)O` (stereo partly drawn) [US20260034094, Compound 311], the IC50 is reported as under 20 µM. In the case of `N=S(=O)(CCC(c1ccccn1)C(F)(F)F)CC[C@H](N)C(=O)O` (stereo partly drawn) [US20260034094, Compound 313], the IC50 is reported as under 20 µM. For `N=S(=O)(CCC(c1ccc(-c2ccccc2)cc1Cl)C(F)(F)F)CC[C@H](N)C(=O)O` (stereo partly drawn) [US20260034094, Compound 315], the IC50 was under 20 µM. With `N=S(=O)(CCC(c1ccc(Oc2ccccc2)cc1)C(F)(F)F)CC[C@H](N)C(=O)O` (stereo partly drawn) [US20260034094, Compound 316] the IC50 was under 20 µM. With `N=S(=O)(CCC(c1ccc(-c2ccc(Cl)cc2Cl)cn1)C(F)(F)F)CC[C@H](N)C(=O)O` (stereo partly drawn) [US20260034094, Compound 317] the IC50 was under 20 µM. Molecule `N=S(=O)(CCC(c1ccc(Oc2ccc(Cl)cc2Cl)cc1)C(F)(F)F)CC[C@H](N)C(=O)O` (stereo partly drawn) [US20260034094, Compound 318] has an IC50 of under 20 µM. In the case of `N=S(=O)(CCC(CO)C(F)(F)F)CC[C@H](N)C(=O)O` (stereo partly drawn) [US20260034094, Compound 320], the IC50 is reported as under 20 µM. In the case of `N=S(=O)(CC[C@H](N)C(=O)O)CCC(O)(c1ccn(-c2ccc(Cl)cc2Cl)n1)C(F)(F)F` (stereo partly drawn) [US20260034094, Compound 336], the IC50 is reported as under 20 µM. In the case of `N=S(=O)(CC[C@H](N)C(=O)O)CCC(O)(c1cc(-c2ccc(Cl)cc2Cl)cs1)C(F)(F)F` (stereo partly drawn) [US20260034094, Compound 337], the IC50 is reported as under 20 µM. `N=S(=O)(CC[C@H](N)C(=O)O)CCC(O)(c1ccc(OC2CCCCC2)cc1)C(F)(F)F` (stereo partly drawn) [US20260034094, Compound 339] showed an IC50 of under 20 µM. With `N=S(=O)(CC[C@H](N)C(=O)O)CCC(O)([C@H]1CC[C@H](c2ccc(Cl)cc2Cl)CC1)C(F)(F)F` (stereo partly drawn) [US20260034094, Compound 340] the IC50 was under 20 µM. Work on `N=S(=O)(CC[C@H](N)C(=O)O)CCC(O)([C@H]1CC[C@@H](c2ccc(Cl)cc2Cl)CC1)C(F)(F)F` (stereo partly drawn) [US20260034094, Compound 341] yielded an IC50 of under 20 µM. In the case of `N=S(=O)(CC[C@H](N)C(=O)O)CCC(O)(c1ccc(Oc2ccc(Cl)cc2Cl)cc1)C(F)(F)F` (stereo partly drawn) [US20260034094, Compound 342], the IC50 is reported as under 20 µM. In the case of `N=S(=O)(CC[C@H](N)C(=O)O)CCC(O)(c1cnc(-c2ccc(Cl)cc2Cl)nc1)C(F)(F)F` (stereo partly drawn) [US20260034094, Compound 366], the IC50 is reported as under 20 µM. With `N=S(=O)(CC[C@H](N)C(=O)O)CCC(O)(c1cnc(-c2ccc(Cl)cc2Cl)cn1)C(F)(F)F` (stereo partly drawn) [US20260034094, Compound 367] the IC50 was under 20 µM. With `N=S(=O)(CC[C@H](N)C(=O)O)CCC(O)(c1ccc2ccccc2n1)C(F)(F)F` (stereo partly drawn) [US20260034094, Compound 373] the IC50 was under 20 µM. For `N=S(=O)(CCC(c1ccc2[nH]nnc2c1)C(F)(F)F)CC[C@H](N)C(=O)O` (stereo partly drawn) [US20260034094, Compound 393], the IC50 was under 20 µM. Molecule `N=S(=O)(CCC(c1ccccc1O)C(F)(F)F)CC[C@H](N)C(=O)O` (stereo partly drawn) [US20260034094, Compound 397] has an IC50 of under 20 µM. `N=S(=O)(CCC(c1ccc2[nH]cnc2c1)C(F)(F)F)CC[C@H](N)C(=O)O` (stereo partly drawn) [US20260034094, Compound 399] gave an IC50 of under 20 µM. With `N=S(=O)(CC[C@H](N)C(=O)O)CCC1(c2ccc(Oc3ccc(Cl)cc3Cl)cc2)CCC1` (stereo partly drawn) [US20260034094, Compound 403] the IC50 was under 20 µM. For `N=S(=O)(CCC(N1CCN(c2ccc(Cl)cc2Cl)CC1)C(F)(F)F)CC[C@H](N)C(=O)O` (stereo partly drawn) [US20260034094, Compound 423], the IC50 was under 20 µM. For `Cc1ccccc1-c1ccc(C(O)(CCS(=N)(=O)CC[C@H](N)C(=O)O)C(F)(F)F)cc1` (stereo partly drawn) [US20260034094, Compound 429], the IC50 was under 20 µM. With `Cc1cc(Cl)ccc1-c1ccc(C(O)(CCS(=N)(=O)CC[C@H](N)C(=O)O)C(F)(F)F)cc1` (stereo partly drawn) [US20260034094, Compound 430] the IC50 was under 20 µM. Work on `N=S(=O)(CC[C@H](N)C(=O)O)CCC(O)(c1ccc(-c2ccc(Cl)cc2)cc1)C(F)(F)F` (stereo partly drawn) [US20260034094, Compound 431] yielded an IC50 of under 20 µM. Molecule `Cc1ccc(-c2ccc(C(O)(CCS(=N)(=O)CC[C@H](N)C(=O)O)C(F)(F)F)cc2)c(Cl)c1` (stereo partly drawn) [US20260034094, Compound 432] has an IC50 of under 20 µM. With `Cn1ncc(-c2ccc(C(O)(CCS(=N)(=O)CC[C@H](N)C(=O)O)C(F)(F)F)cc2)cc1=O` (stereo partly drawn) [US20260034094, Compound 433] the IC50 was under 20 µM. Molecule `N=S(=O)(CC[C@H](N)C(=O)O)CCC(O)(c1cccc(-c2ccccc2)c1)C(F)(F)F` (stereo partly drawn) [US20260034094, Compound 435] has an IC50 of under 20 µM. `Cc1ccc(-c2ccc(C(O)(CCS(=N)(=O)CC[C@H](N)C(=O)O)C(F)(F)F)cc2)c(F)c1` (stereo partly drawn) [US20260034094, Compound 437] was tested, and the IC50 was under 20 µM. Work on `Cc1cc(C(O)(CCS(=N)(=O)CC[C@H](N)C(=O)O)C(F)(F)F)ccc1-c1ccc(Cl)cc1Cl` (stereo partly drawn) [US20260034094, Compound 443] yielded an IC50 of under 20 µM. Work on `N=S(=O)(CC[C@H](N)C(=O)O)CCC(O)(c1ncc(-c2ccc(Cl)cc2Cl)cn1)C(F)(F)F` (stereo partly drawn) [US20260034094, Compound 462] yielded an IC50 of under 20 µM. `N=S(=O)(CC[C@H](N)C(=O)O)CCC(O)(c1ncc(-c2ccccc2)cn1)C(F)(F)F` (stereo partly drawn) [US20260034094, Compound 467] gave an IC50 of under 20 µM. For `N[C@@H](CCS(=O)(=O)CCC(O)(c1ncc(-c2ccc(Cl)cc2Cl)cn1)C(F)(F)F)C(=O)O` (stereo partly drawn) [US20260034094, Compound 470], the IC50 was under 20 µM. For `Cc1ccccc1-c1ccc(C(O)(CCS(=N)(=O)CC[C@H](N)C(=O)O)C(F)(F)F)nc1` (stereo partly drawn) [US20260034094, Compound 471], the IC50 was under 20 µM. Work on `Cn1cc(-c2ccc(C(O)(CCS(=N)(=O)CC[C@H](N)C(=O)O)C(F)(F)F)nc2)cn1` (stereo partly drawn) [US20260034094, Compound 472] yielded an IC50 of under 20 µM. `Cc1cc(Cl)ccc1-c1cnc(C(O)(CCS(=N)(=O)CC[C@H](N)C(=O)O)C(F)(F)F)nc1` (stereo partly drawn) [US20260034094, Compound 474] showed an IC50 of under 20 µM. For `N=S(=O)(CC[C@H](N)C(=O)O)CCC(O)(c1ccc(C2CCCCC2)cn1)C(F)(F)F` (stereo partly drawn) [US20260034094, Compound 476], the IC50 was under 20 µM. In the case of `N=S(=O)(CC[C@H](N)C(=O)O)CCC(O)(c1ccc(-c2ccco2)cn1)C(F)(F)F` (stereo partly drawn) [US20260034094, Compound 481], the IC50 is reported as under 20 µM.
